Experimental data published in ChEMBL document CHEMBL2401725, “Synthesis of new chromeno-annulated cis-fused pyrano[4,3-c]isoxazole derivatives via intramolecular nitrone cycloaddition and their cytotoxicity evaluation” (Bioorg Med Chem Lett, 2013).

Tests used:
Type in all cases: functional, cell-based
A549 = assay: Cytotoxicity against human A549 cells by MTT assay
MDA-MB-231 = assay: Cytotoxicity against human MDA-MB-231 cells by MTT assay
MCF7 = assay: Cytotoxicity against human MCF7 cells by MTT assay
HeLa = assay: Cytotoxicity against human HeLa cells by MTT assay

Compound | IC50 (A549) [µM] | IC50 (MDA-MB-231) [µM] | IC50 (MCF7) [µM] | IC50 (HeLa) [µM]
COc1ccc(CN2OC(C)(C)[C@H]3COc4ccc5c(=O)c(C)c(C)oc5c4[C@H]32)cc1 | 11.2 | 7.81 | 5.59 | > 100
COc1ccc(CN2OC(C)(C)[C@H]3COc4ccc5c(=O)c(-c6ccccc6)c(C)oc5c4[C@H]32)cc1 | > 100 | > 100 | > 100 | > 100
Cc1ccc(CN2OC(C)(C)[C@H]3COc4ccc5c(=O)c(C)c(C)oc5c4[C@H]32)cc1 | 8.92 | 5.64 | 26.5 | 18.2
COc1ccc(CN2OC(C)(C)[C@H]3COc4ccc5c(=O)c(C)coc5c4[C@H]32)cc1 | 29.4 | > 100 | 7.38 | 6.54
Cc1oc2c3c(ccc2c(=O)c1C)OC[C@H]1[C@@H]3N(Cc2ccccc2)OC1(C)C | 17.9 | 14.5 | 5.78 | > 100
Cc1ccc(CN2OC(C)(C)[C@H]3COc4ccc5c(=O)c(C)coc5c4[C@H]32)cc1 | > 100 | > 100 | 5.3 | > 100
Cc1coc2c3c(ccc2c1=O)OC[C@H]1[C@@H]3N(C2CCCCC2)OC1(C)C | 0.194 | 17.4 | 22.7 | 17.5
Cc1oc2c3c(ccc2c(=O)c1C)OC[C@H]1[C@@H]3N(Cc2ccc(C(C)C)cc2)OC1(C)C | > 100 | 6.25 | 7.96 | > 100
COc1cccc2c1C(=O)c1c(O)c3c(c(O)c1C2=O)C[C@@](O)(C(=O)CO)C[C@@H]3O[C@H]1C[C@H](N)[C@H](O)[C@H](C)O1 [DOXORUBICIN] | 1.21 | 0.501 | 1.05 | 0.451
Cc1oc2c3c(ccc2c(=O)c1C)OC[C@H]1[C@@H]3N(Cc2ccc(F)cc2)OC1(C)C | 12.8 | 7.9 | 10.1 | 9.54
Cc1coc2c3c(ccc2c1=O)OC[C@H]1[C@@H]3N(Cc2ccccc2)OC1(C)C | > 100 | > 100 | > 100 | 6.61
Cc1oc2c3c(ccc2c(=O)c1C)OC[C@H]1[C@@H]3N(C2CCCCC2)OC1(C)C | 8.96 | 7.56 | > 100 | > 100
